Experimental data reported in patent publication US10617662B2, “Autophagy activation-induced compound for improving skin inflammation for aging” (INCOSPHARM CORPORATION, priority 2017, dated 2020).

Test system: IL-1β (interleukin-1beta)
Assay: ELISA for IL-1β in LPS-treated HEKa cells
Assay type: cell-based, human
Conditions: LPS-induced inflammatory condition, 10·M, FIG. 10
Experimental: ELISA (enzyme-linked immunosorbent assay) for IL-1β (interleukin-1beta) which is very closely related to atopic inflammation and psoriasis was performed.
As a specific experimental method, HEKa cells (Human Epidermal keratinocytes, adult), human-derived epidermal keratinocytes were seeded on a 24 well plate at a density of 1×10^5 cells, and cultured in an EpiLife medium (1× Human keratinocyte Growth supplement, 1× antibiotics) in an incubator under 37° C. and 5% CO2 for 24 hours.
After culturing, while an inflammatory condition was induced by treatment with LPS (lipopolysaccharides) in each well, further treatment was performed with Compound 8 of the present invention and the compound of the following Comparative Example at a concentration of 10·M, and then the cells were incubated for a certain period. After completing culturing, media were collected, and then ELISA for IL-1β was carried out, and the results are shown in FIG. 10.

O=C(O)CN(CCCCNC(CCCCN(CC(=O)O)CC(=O)O)C(=O)O)CC(=O)O (stereo not shown) [compound of the Comparative Example, reference compound]
cytokine IL-1β secretion level: negligible
